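Five compound concentrations were applied to cells in 96-well plates for 48 hours; endpoints were derived by simple linear interpolation of the resulting dose-response curve. TGI is the concentration that stops growth completely.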
These molecules were tested on UACC-62 melanoma (assay: NCI tumour cell line growth inhibition, 48 h).
In the case of `CC1=CCC([C@@](C)(O)CCCC(C)(C)N=C=S)CC1` (stereo partly specified), the TGI is reported as 34.7 µM.
For `N[C@@H](Cc1ccccc1)C(=O)N1CCC[C@@H]1P(=O)(Oc1ccccc1)Oc1ccccc1`, the TGI was greater than 100 µM.
In the case of `Cc1ccc(/C=N\NC2c3cc(Cl)ccc3Nc3nc(=O)[nH]c(C)c32)cc1` (stereo unspecified), the TGI is reported as greater than 100 µM.
`O=c1[nH][nH]c(=O)n1CCCCCCn1c(=O)[nH][nH]c1=O` showed a TGI greater than 100 µM.
Molecule `COc1ccc(-c2nc(SCC(=O)NNC(=S)Nc3ccccc3)[nH]c2-c2ccc(OC)cc2)cc1` has a TGI of 30.6 µM.
`CCCCCC#CCOC(=O)C(=[N+]=[N-])P(=O)(c1ccccc1)c1ccccc1` showed a TGI greater than 10 µM.
Molecule `COc1cc(OC)cc(C(=O)CC(=O)c2cc(OC)cc(OC)c2)c1` has a TGI greater than 100 µM.
In the case of `O=C1OC(C2Cc3ccc4ccccc4c3C2=O)c2ccccc21` (stereo unspecified), the TGI is reported as greater than 100 µM.
Work on `O=C(O)[C@H]1CCCN1CP(=O)(O)CN1CCC[C@@H]1C(=O)O` yielded a TGI greater than 100 µM.
`O=C1c2ccccc2C(=O)N1n1c(Cc2ccc([N+](=O)[O-])cc2)n[nH]c1=O` was tested, and the TGI was 89.1 µM.
With `COc1ccc(C2OC(c3ccncc3)=NN2C)cc1F` (stereo unspecified) the TGI was greater than 100 µM.
`COc1cc2c(cc1OC)C(C(c1ccccc1)c1ccccc1)N(C)CC2` (stereo unspecified) showed a TGI greater than 100 µM.
Molecule `C[N+](C)([O-])CCOc1cc2c(c3ccccc13)-c1ccccc1C2=O` has a TGI of 30.2 µM.
`COC(=O)C(Cc1ccc2c(c1)CCC2)Cc1ccc2c(c1)CCC2` showed a TGI greater than 100 µM.
In the case of `C/C(C[n+]1ccccc1)=N\N=C(N)N`, the TGI is reported as greater than 100 µM.
`O=[N+]([O-])C(=C(Nc1cccc2cccnc12)Nc1cccc2cccnc12)C(Cl)=C(Cl)Cl` gave a TGI greater than 100 µM.
For `Cc1nc(C)c(C(=O)NNC(=O)C[N+](C)(C)C)cc1C(=O)NNC(=O)C[N+](C)(C)C`, the TGI was greater than 100 µM.
In the case of `S=C1NC2=C(CSC/C2=C\c2cccc(Br)c2)C(c2cccc(Br)c2)N1` (stereo unspecified), the TGI is reported as greater than 100 µM.
`CCCCCCCCCCCCCCCCNc1cccc2ccccc12` gave a TGI greater than 100 µM.
In the case of `C=C(C(=O)OCC)C(=O)OCC`, the TGI is reported as greater than 100 µM.
Molecule `O=C1OCC/C1=N/O` has a TGI greater than 100 µM.
`CC(O)CNC(=O)C(C)Oc1ccc(OCC2CCCCC2)cc1` (stereo unspecified) was tested, and the TGI was greater than 100 µM.
Molecule `CSC1=N/C(=C\c2ccc(C)cc2)C(=O)N1CN1CCCCC1` has a TGI greater than 100 µM.
Work on `CC(=NNC(=S)Nc1ccccc1)c1cccc(C(C)=NNC(=S)Nc2ccccc2)n1` yielded a TGI of 26.7 µM.
Work on `Cc1c(/C=N\NC(=S)NCCNC(=S)N/N=C\c2c(C)n(C)n(-c3ccccc3)c2=O)c(=O)n(-c2ccccc2)n1C` yielded a TGI greater than 100 µM.
In the case of `CC(C)c1cc2c(c(O)c1O)[C@@]1(C(=O)O)CCCC(C)(C)[C@@H]1CC2`, the TGI is reported as 30.8 µM.
`O=P(O)(O)C(N=C(Nc1ccccc1)Nc1ccccc1)P(=O)(O)O` showed a TGI greater than 100 µM.
`Cc1c(O)nc(-n2[nH]c3c(c2=O)CCCC3)[nH]c1=O` was tested, and the TGI was greater than 100 µM.
Work on `CCCNc1ncnc2c1ncn2C` yielded a TGI greater than 100 µM.
With `CCOS(C)(=O)=O` the TGI was greater than 100 µM.
`CC(NC(=O)Cc1ccccc1)NC(=O)C(C)C(=O)Nc1ccccc1` (stereo unspecified) was tested, and the TGI was greater than 100 µM.
In the case of `CC(C)(C)[Si](C)(C)OCC1OC(n2ccc(=O)[nH]c2=O)C(O[Si](C)(C)C(C)(C)C)/C1=C/C#N` (stereo unspecified), the TGI is reported as 2.75 µM.
For `C=C1CC(C#N)(C#N)[C@H]2C3CCCC3C[C@@H]12` (stereo partly specified) (tested in a mixture with another compound), the TGI was greater than 100 µM.
In the case of `Nc1ccc(N=Nc2c(S(=O)(=O)O)cc3ccccc3c2S(=O)(=O)O)cc1`, the TGI is reported as greater than 100 µM.

The molecules below were run on CAKI-1 renal (assay: NCI tumour cell line growth inhibition, 48 h).
`N[C@@H](Cc1ccccc1)C(=O)N1CCC[C@@H]1P(=O)(Oc1ccccc1)Oc1ccccc1` was tested, and the TGI was greater than 100 µM.
`O=c1[nH][nH]c(=O)n1CCCCCCn1c(=O)[nH][nH]c1=O` gave a TGI greater than 100 µM.
For `COc1ccc(-c2nc(SCC(=O)NNC(=S)Nc3ccccc3)[nH]c2-c2ccc(OC)cc2)cc1`, the TGI was greater than 100 µM.
With `O=C1OC(C2Cc3ccc4ccccc4c3C2=O)c2ccccc21` (stereo unspecified) the TGI was greater than 100 µM.
With `O=C(O)[C@H]1CCCN1CP(=O)(O)CN1CCC[C@@H]1C(=O)O` the TGI was greater than 100 µM.
`O=C1c2ccccc2C(=O)N1n1c(Cc2ccc([N+](=O)[O-])cc2)n[nH]c1=O` was tested, and the TGI was greater than 100 µM.
With `COc1ccc(C2OC(c3ccncc3)=NN2C)cc1F` (stereo unspecified) the TGI was greater than 100 µM.
`COc1cc2c(cc1OC)C(C(c1ccccc1)c1ccccc1)N(C)CC2` (stereo unspecified) showed a TGI greater than 100 µM.
With `C[N+](C)([O-])CCOc1cc2c(c3ccccc13)-c1ccccc1C2=O` the TGI was 61.9 µM.
In the case of `C/C(C[n+]1ccccc1)=N\N=C(N)N`, the TGI is reported as greater than 100 µM.
`O=[N+]([O-])C(=C(Nc1cccc2cccnc12)Nc1cccc2cccnc12)C(Cl)=C(Cl)Cl` gave a TGI greater than 92.2 µM.
Molecule `Cc1nc(C)c(C(=O)NNC(=O)C[N+](C)(C)C)cc1C(=O)NNC(=O)C[N+](C)(C)C` has a TGI greater than 100 µM.
`S=C1NC2=C(CSC/C2=C\c2cccc(Br)c2)C(c2cccc(Br)c2)N1` (stereo unspecified) showed a TGI greater than 100 µM.
`C=C(C(=O)OCC)C(=O)OCC` was tested, and the TGI was greater than 100 µM.
`CC(=NNC(=S)Nc1ccccc1)c1cccc(C(C)=NNC(=S)Nc2ccccc2)n1` showed a TGI greater than 22.9 µM.
Molecule `Cc1c(/C=N\NC(=S)NCCNC(=S)N/N=C\c2c(C)n(C)n(-c3ccccc3)c2=O)c(=O)n(-c2ccccc2)n1C` has a TGI greater than 100 µM.
For `CC(C)c1cc2c(c(O)c1O)[C@@]1(C(=O)O)CCCC(C)(C)[C@@H]1CC2`, the TGI was 51.8 µM.
In the case of `O=P(O)(O)C(N=C(Nc1ccccc1)Nc1ccccc1)P(=O)(O)O`, the TGI is reported as greater than 100 µM.
`Cc1c(O)nc(-n2[nH]c3c(c2=O)CCCC3)[nH]c1=O` was tested, and the TGI was greater than 100 µM.
Molecule `CCCNc1ncnc2c1ncn2C` has a TGI greater than 100 µM.
Molecule `CCOS(C)(=O)=O` has a TGI greater than 100 µM.
With `CC(NC(=O)Cc1ccccc1)NC(=O)C(C)C(=O)Nc1ccccc1` (stereo unspecified) the TGI was greater than 100 µM.
`CC(C)(C)[Si](C)(C)OCC1OC(n2ccc(=O)[nH]c2=O)C(O[Si](C)(C)C(C)(C)C)/C1=C/C#N` (stereo unspecified) was tested, and the TGI was 98.2 µM.
`Nc1ccc(N=Nc2c(S(=O)(=O)O)cc3ccccc3c2S(=O)(=O)O)cc1` was tested, and the TGI was greater than 100 µM.

The molecules below were run on KM12 colon (assay: NCI tumour cell line growth inhibition, 48 h).
Molecule `CC1=CCC([C@@](C)(O)CCCC(C)(C)N=C=S)CC1` (stereo partly specified) has a TGI of 29.5 µM.
Molecule `N[C@@H](Cc1ccccc1)C(=O)N1CCC[C@@H]1P(=O)(Oc1ccccc1)Oc1ccccc1` has a TGI greater than 100 µM.
`Cc1ccc(/C=N\NC2c3cc(Cl)ccc3Nc3nc(=O)[nH]c(C)c32)cc1` (stereo unspecified) gave a TGI greater than 100 µM.
With `O=c1[nH][nH]c(=O)n1CCCCCCn1c(=O)[nH][nH]c1=O` the TGI was greater than 100 µM.
Molecule `COc1ccc(-c2nc(SCC(=O)NNC(=S)Nc3ccccc3)[nH]c2-c2ccc(OC)cc2)cc1` has a TGI of 85.9 µM.
Molecule `CCCCCC#CCOC(=O)C(=[N+]=[N-])P(=O)(c1ccccc1)c1ccccc1` has a TGI greater than 10 µM.
Work on `COc1cc(OC)cc(C(=O)CC(=O)c2cc(OC)cc(OC)c2)c1` yielded a TGI greater than 100 µM.
`O=C1OC(C2Cc3ccc4ccccc4c3C2=O)c2ccccc21` (stereo unspecified) showed a TGI greater than 100 µM.
`O=C(O)[C@H]1CCCN1CP(=O)(O)CN1CCC[C@@H]1C(=O)O` gave a TGI greater than 100 µM.
Molecule `O=C1c2ccccc2C(=O)N1n1c(Cc2ccc([N+](=O)[O-])cc2)n[nH]c1=O` has a TGI greater than 100 µM.
Molecule `COc1ccc(C2OC(c3ccncc3)=NN2C)cc1F` (stereo unspecified) has a TGI greater than 100 µM.
`COc1cc2c(cc1OC)C(C(c1ccccc1)c1ccccc1)N(C)CC2` (stereo unspecified) was tested, and the TGI was greater than 100 µM.
`C[N+](C)([O-])CCOc1cc2c(c3ccccc13)-c1ccccc1C2=O` gave a TGI of 66.5 µM.
For `CCOC(=O)C1S/C(=N\C(=N)N[N+](=O)[O-])N=C1C` (stereo unspecified), the TGI was greater than 100 µM.
Molecule `COC(=O)C(Cc1ccc2c(c1)CCC2)Cc1ccc2c(c1)CCC2` has a TGI greater than 100 µM.
For `C/C(C[n+]1ccccc1)=N\N=C(N)N`, the TGI was greater than 100 µM.
For `O=[N+]([O-])C(=C(Nc1cccc2cccnc12)Nc1cccc2cccnc12)C(Cl)=C(Cl)Cl`, the TGI was greater than 100 µM.
Work on `Cc1nc(C)c(C(=O)NNC(=O)C[N+](C)(C)C)cc1C(=O)NNC(=O)C[N+](C)(C)C` yielded a TGI greater than 100 µM.

— PubChem BioAssay (NCI)
